As a reminder, the DC50 is the concentration giving 50% degradation. Low readings indicate degradation at low concentration, high ones degradation only at high concentration.

The values that follow come from patent publication US20250302815A1, “PROTEIN TYROSINE PHOSPHATASE TARGETING LIGANDS” (CALICO LIFE SCIENCES LLC, priority 2021, published 2025).

Experiment [1] addresses T1, PTPN2 (HiBIT-PTPN2 in 293T.109 cells) (Homo sapiens, UniProt P17706).
T1 construct: expressed in transfected cells; host or cells: 293T.109 (293T WT from ATCC)
T1 sequence (P17706 1-415): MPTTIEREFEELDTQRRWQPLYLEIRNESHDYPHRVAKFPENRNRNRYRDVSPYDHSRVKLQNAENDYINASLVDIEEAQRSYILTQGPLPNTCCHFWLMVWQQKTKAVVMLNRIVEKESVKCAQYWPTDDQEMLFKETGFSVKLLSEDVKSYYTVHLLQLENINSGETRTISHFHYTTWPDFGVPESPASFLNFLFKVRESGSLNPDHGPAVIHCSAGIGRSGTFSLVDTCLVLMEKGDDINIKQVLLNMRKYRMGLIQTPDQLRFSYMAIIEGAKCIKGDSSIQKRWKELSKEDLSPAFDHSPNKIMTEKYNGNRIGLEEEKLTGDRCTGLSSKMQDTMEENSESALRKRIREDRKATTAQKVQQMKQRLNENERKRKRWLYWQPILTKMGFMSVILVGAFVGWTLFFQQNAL
Briefly: HiBiT Degradation 293T.109 PTPN2 (Nano-Glo HiBiT Lytic Assay). Type of experiment: cell-based. The settings on record: 24.0 hours. An excerpt:
Dulbecco's modified Eagle medium (DMEM) without phenol red and fetal bovine serum (FBS) were purchased from Gibco (Grand Island, NY, USA). Nano-Glo® HiBIT Lytic Assay System was purchased from Promega (Madison, WI, USA). 293T.109 (HiBIT-PTPN2) cell line was generated by ectopically expressing PTPN2 with N-terminal HiBIT fusion tag in 293T WT cell line purchased from ATCC (Manassas, VA, USA). Cell culture flasks and 384-well microplates were acquired from VWR (Radnor, PA, USA).
PTPN2 degradation was determined based on quantification of luminescent signal using Nano-Glo® HiBIT Lytic Assay kit. Test compounds were added to the 384-well plate from a top concentration of 10 μM with 11 points, half log titration in duplicates. 293T.109 cells were added into 384-well plates at a cell density of 5000 cells per well. The plates were kept at 37° C. with 5% CO2 for 24 hours. The cells treated in the absence of the test compound were the negative control and the cells without Nano-Glo® HiBIT Lytic reagent were the positive control. After 24-hour incubation, Nano-Glo® HiBiT Lytic Assay reagents were added to the cells. Luminescence was acquired on EnVision™ Multilabel Reader (PerkinElmer, Santa Clara, CA, USA).
For orientation: The HiBiT peptide binds its large partner to form an active luciferase.

The target in experiment [2] is T2, PTPN2 (B16F10.4 cells) (Mus musculus, UniProt Q06180).
T2 construct: HiBiT; host or cells: B16F10.4
T2 sequence (Q06180 1-406): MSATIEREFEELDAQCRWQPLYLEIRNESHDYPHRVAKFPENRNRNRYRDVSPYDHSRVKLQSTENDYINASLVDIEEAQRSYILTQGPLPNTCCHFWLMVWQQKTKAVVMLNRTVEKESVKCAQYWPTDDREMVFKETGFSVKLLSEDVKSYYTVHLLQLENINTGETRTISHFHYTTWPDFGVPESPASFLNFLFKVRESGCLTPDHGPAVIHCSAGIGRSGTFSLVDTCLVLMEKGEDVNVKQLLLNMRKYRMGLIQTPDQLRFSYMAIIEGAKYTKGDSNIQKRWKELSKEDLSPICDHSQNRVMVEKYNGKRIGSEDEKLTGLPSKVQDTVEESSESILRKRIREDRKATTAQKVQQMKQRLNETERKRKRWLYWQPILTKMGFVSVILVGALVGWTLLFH
Briefly: HiBiT Degradation B16F10.4 PTPN2. It counts as cell-based. The conditions noted are these: 24.0 hours.

In the case of `Cn1c(=O)n(C2CCC(=O)NC2=O)c2ccc(-c3ccc(CC(=O)Nc4cccc(CS(=O)(=O)N5CC[C@H](Nc6cccc(-c7sc(C(=O)O)c(OCC(=O)O)c7Cl)c6)CC5(C)C)c4)cc3F)cc21` (stereo partly drawn) [Example 178, 3-(carboxymethoxy)-4-chloro-5-(3-(((4S)-1-((3-(2-(4-(1-(2,6-dioxopiperidin-3-yl)-3-methyl-2-oxo-2,3-dihydro-1H-benzo[d]imidazol-5-yl)-3-fluorophenyl)acetamido)benzyl)sulfonyl)-2,2-dimethylpiperidin-4-yl)amino)phenyl)thiophene-2-carboxylic acid], the DC50 in experiment [1] and in experiment [2] was 50 to 200 nM in each case.
As for `CC(C)n1c(=O)n(C2CCC(=O)NC2=O)c2ccc(C3CCN(C(=O)Nc4cccc(CS(=O)(=O)N5CC[C@H](Nc6cccc(-c7sc(C(=O)O)c(OCC(=O)O)c7Cl)c6)CC5(C)C)c4)CC3(F)F)cc21` (stereo partly drawn) [Example 181, 3-(carboxymethoxy)-4-chloro-5-[3-[[(4S)-1-[[3-[[4-[1-(2,6-dioxo-3-piperidyl)-3-isopropyl-2-oxo-benzimidazol-5-yl]-3,3-difluoro-piperidine-1-carbonyl]amino]phenyl]methylsulfonyl]-2,2-dimethyl-4-piperidyl]amino]phenyl]thiophene-2-carboxylic acid], the half-maximal degradation concentration (DC50) in experiment [1] and in experiment [2] was under 50 nM each time.
On to `CC1(C)C[C@@H](Nc2cccc(-c3sc(C(=O)O)c(OCC(=O)O)c3Cl)c2)CCN1S(=O)(=O)Cc1cccc(NC(=O)N2CCC(c3ccc4c(c3)c3cccnc3n4C3CCC(=O)NC3=O)CC2)c1` (stereo partly drawn) [Example 195, 3-(carboxymethoxy)-4-chloro-5-[3-[[(4S)-1-[[3-[[4-[9-(2,6-dioxo-3-piperidyl)pyrido[2,3-b]indol-6-yl]piperidine-1-carbonyl]amino]phenyl]methylsulfonyl]-2,2-dimethyl-4-piperidyl]amino]phenyl]thiophene-2-carboxylic acid], for which the DC50 in experiment [1] and in experiment [2] was 200 to 1000 nM in each case.
Regarding `CC1(C)C[C@@H](Nc2cccc(-c3sc(C(=O)O)c(OCC(=O)O)c3Cl)c2)CCN1S(=O)(=O)Cc1cccc(NC(=O)COC2CN(C(=O)CNc3cccc4c3CN(C3CCC(=O)NC3=O)C4=O)C2)c1` (stereo partly drawn) [Example 92], the 50% degradation concentration (DC50) lay within 50 to 200 nM in experiment [1] and 200 to 1000 nM in experiment [2].
On the same counts, the results for `CC1(C)C[C@@H](Nc2cccc(-c3sc(C(=O)O)c(OCC(=O)O)c3Cl)c2)CCN1S(=O)(=O)Cc1cccc(NC(=O)[C@H]2[C@@H]3CN(C(=O)COc4cccc5c4CN(C4CCC(=O)NC4=O)C5=O)C[C@@H]32)c1` (stereo partly drawn) [Example 101] are 50 to 200 nM and 50 to 200 nM.
On the same counts, the results for `Cc1cc2cc(C3CCN(C(=O)Nc4cccc(CS(=O)(=O)N5CC[C@H](Nc6cccc(-c7sc(C(=O)O)c(OCC(=O)O)c7Cl)c6)CC5(C)C)c4)CC3)ccc2n1C1CCC(=O)NC1=O` (stereo partly drawn) [Example 208, 3-(carboxymethoxy)-4-chloro-5-[3-[[(4S)-1-[[3-[[4-[1-(2,6-dioxo-3-piperidyl)-2-methyl-indol-5-yl]piperidine-1-carbonyl]amino]phenyl]methylsulfonyl]-2,2-dimethyl-4-piperidyl]amino]phenyl]thiophene-2-carboxylic acid] are 200 to 1000 nM and 200 to 1000 nM.
On the same counts, the results for `Cn1c(=O)n(C2CCC(=O)NC2=O)c2ccc(N3CCC(NCCNc4cccc(CS(=O)(=O)N5CC[C@H](Nc6cccc(-c7sc(C(=O)O)c(OCC(=O)O)c7Cl)c6)CC5(C)C)c4)CC3)cc21` (stereo partly drawn) [Example 197, 3-(carboxymethoxy)-4-chloro-5-[3-[[(4S)-1-[[3-[2-[[1-[1-(2,6-dioxo-3-piperidyl)-3-methyl-2-oxo-benzimidazol-5-yl]-4-piperidyl]amino]ethylamino]phenyl]methylsulfonyl]-2,2-dimethyl-4-piperidyl]amino]phenyl]thiophene-2-carboxylic acid] are under 50 nM and 50 to 200 nM.
For the molecule `Cn1c(=O)n(C2CCC(=O)NC2=O)c2ccc([C@@H]3CCN(C(=O)Nc4cccc(CS(=O)(=O)N5CC[C@H](Nc6cccc(-c7sc(C(=O)O)c(OCC(=O)O)c7Cl)c6)CC5(C)C)c4)CC3(F)F)cc21` (stereo partly drawn) [Example 169, 3-(carboxymethoxy)-4-chloro-5-(3-(((4S)-1-((3-((4S)-4-(1-(2,6-dioxopiperidin-3-yl)-3-methyl-2-oxo-2,3-dihydro-1H-benzo[d]imidazol-5-yl)-3,3-difluoropiperidine-1-carboxamido)benzyl)sulfonyl)-2,2-dimethylpiperidin-4-yl)amino)phenyl)thiophene-2-carboxylic acid], the DC50 in experiment [1] and in experiment [2] was under 50 nM in each case.
In the case of `Cn1c(=O)n([C@H]2CCC(=O)NC2=O)c2ccc(C3CCN(C(=O)Nc4cccc(CS(=O)(=O)N5CC[C@H](Nc6cccc(-c7sc(C(=O)O)c(OCC(=O)O)c7Cl)c6)CC5(C)C)c4)CC3)cc21` (single isomer, unassigned) [Example 234], the DC50 in experiment [1] and in experiment [2] was under 50 nM throughout.
With `CC1(C)C[C@@H](Nc2cccc(-c3sc(C(=O)O)c(OCC(=O)O)c3Cl)c2F)CCN1S(=O)(=O)Cc1ccc(F)c(NC(=O)N2CCC(c3ccc4c5c(cccc35)C(=O)N4C3CCC(=O)NC3=O)CC2)c1` (single isomer, unassigned) [Example 167], the results for the DC50 in experiment [1] and in experiment [2] were 50 to 200 nM and under 50 nM, respectively.
On the same counts, the results for `O=C(O)COc1c(C(=O)O)sc(-c2cccc(NC3CCN(S(=O)(=O)Cc4cccc(NC(=O)CNc5ccc6c(c5)C(=O)N(C5CCC(=O)NC5=O)C6=O)c4)CC3)c2)c1Cl` (stereo not drawn) [Example 23, 3-(carboxymethoxy)-4-chloro-5-[3-[[1-[[3-[[2-[[2-(2,6-dioxo-3-piperidyl)-1,3-dioxo-isoindolin-5-yl]amino]acetyl]amino]phenyl]methylsulfonyl]-4-piperidyl]amino]phenyl]thiophene-2-carboxylic acid] are 200 to 1000 nM and 200 to 1000 nM.
For `Cn1c(=O)n(C2CCC(=O)NC2=O)c2cccc(CCC(=O)Nc3cccc(CS(=O)(=O)N4CCC(Nc5cccc(-c6sc(C(=O)O)c(OCC(=O)O)c6Cl)c5)CC4)c3)c21` (stereo not drawn) [Example 53] the same measures were 50 to 200 nM and 200 to 1000 nM.
As to `CC1(C)C[C@@H](Nc2cccc(-c3sc(C(=O)O)c(OCC(=O)O)c3Cl)c2)CCN1S(=O)(=O)Cc1cccc(NC(=O)CN2CCC(n3c(=O)n(C4CCC(=O)NC4=O)c4ccccc43)CC2)c1` (stereo partly drawn) [Example 130, 3-(carboxymethoxy)-4-chloro-5-[3-[[(4S)-1-[[3-[[2-[4-[3-(2,6-dioxo-3-piperidyl)-2-oxo-benzimidazol-1-yl]-1-piperidyl]acetyl]amino]phenyl]methylsulfonyl]-2,2-dimethyl-4-piperidyl]amino]phenyl]thiophene-2-carboxylic acid], the DC50 in experiment [1] and in experiment [2] was 200 to 1000 nM throughout.
As for `CC1(C)C[C@@H](Nc2cccc(-c3sc(C(=O)O)c(OCC(=O)O)c3Cl)c2)CCN1S(=O)(=O)Cc1cccc(NC(=O)N2CCC(c3ccc4c(c3)n(CC(F)(F)F)c(=O)n4C3CCC(=O)NC3=O)CC2)c1` (stereo partly drawn) [Example 155, 3-(carboxymethoxy)-4-chloro-5-[3-[[(4S)-1-[[3-[[4-[1-(2,6-dioxo-3-piperidyl)-2-oxo-3-(2,2,2-trifluoroethyl)benzimidazol-5-yl]piperidine-1-carbonyl]amino]phenyl]-methylsulfonyl]-2,2-dimethyl-4-piperidyl]amino]phenyl]thiophene-2-carboxylic acid], the half-maximal degradation concentration (DC50) in experiment [1] and in experiment [2] was 50 to 200 nM each time.
With `Cn1c(=O)n(C2CCC(=O)NC2=O)c2ccc(C3CCN(C(=O)Nc4cccc(CS(=O)(=O)N5CCC(Nc6cccc(-c7sc(C(=O)O)c(OCC(=O)O)c7Cl)c6)CC5)c4)CC3)cc21` (stereo not drawn) [Example 51, 3-(carboxymethoxy)-4-chloro-5-[3-[[1-[[3-[[4-[1-(2,6-dioxo-3-piperidyl)-3-methyl-2-oxo-benzimidazol-5-yl]piperidine-1-carbonyl]amino]phenyl]methylsulfonyl]-4-piperidyl]amino]phenyl]thiophene-2-carboxylic acid], the DC50 in experiment [1] and in experiment [2] was 50 to 200 nM in each case.
